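The compound was tested at five concentrations on cells cultured in 96-well plates, with a 48-hour exposure period. Abbreviation: GI50, concentration required for 50% inhibition of growth. The concentration for full growth arrest is given as TGI.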
Tests used:
Assay in all cases: inhibition of tumour cell growth, NCI panel, 48 h; in the data active = GI50 below about 0.43 µM; inactive = the rest
HCT-15 colon = system: HCT-15 colon
NCI-H226 lung = system: NCI-H226 lung
NCI-H460 lung = system: NCI-H460 lung
SF-295 CNS = system: SF-295 CNS
SK-OV-3 ovarian = system: SK-OV-3 ovarian
SNB-75 CNS = system: SNB-75 CNS
T-47D breast = system: T-47D breast
TK-10 renal = system: TK-10 renal
UACC-257 melanoma = system: UACC-257 melanoma
UACC-62 melanoma = system: UACC-62 melanoma

COc1cc(S(=O)(=O)Nc2ccc(C(=O)/C=C/c3ccc(O)cc3)cc2)ccc1F
inactive: GI50 (HCT-15 colon) > 100 µM | GI50 (NCI-H226 lung) 22.4 µM | GI50 (NCI-H460 lung) > 100 µM | GI50 (SF-295 CNS) > 100 µM | GI50 (SK-OV-3 ovarian) > 100 µM | GI50 (SNB-75 CNS) 87.5 µM | GI50 (T-47D breast) > 100 µM | GI50 (TK-10 renal) 47 µM | GI50 (UACC-257 melanoma) > 100 µM | GI50 (UACC-62 melanoma) 57.6 µM
76.2 µM: TGI (NCI-H226 lung)
> 100 µM: TGI (HCT-15 colon) | TGI (NCI-H460 lung) | TGI (SF-295 CNS) | TGI (SK-OV-3 ovarian) | TGI (SNB-75 CNS) | TGI (T-47D breast) | TGI (TK-10 renal) | TGI (UACC-257 melanoma) | TGI (UACC-62 melanoma)

Reference: PubChem BioAssay (NCI)
